US8884023B2, “Pyrano [3,2-D][1,3]thiazole as glycosidase inhibitors” (priority 2011, dated 2014)
Where two headings read alike, the source gives them in different places.

Biological target: T1, His-Tagged hOGA (human O-GlcNAcase) (Homo sapiens, UniProt O60502)
T1 sequence (O60502 1-916): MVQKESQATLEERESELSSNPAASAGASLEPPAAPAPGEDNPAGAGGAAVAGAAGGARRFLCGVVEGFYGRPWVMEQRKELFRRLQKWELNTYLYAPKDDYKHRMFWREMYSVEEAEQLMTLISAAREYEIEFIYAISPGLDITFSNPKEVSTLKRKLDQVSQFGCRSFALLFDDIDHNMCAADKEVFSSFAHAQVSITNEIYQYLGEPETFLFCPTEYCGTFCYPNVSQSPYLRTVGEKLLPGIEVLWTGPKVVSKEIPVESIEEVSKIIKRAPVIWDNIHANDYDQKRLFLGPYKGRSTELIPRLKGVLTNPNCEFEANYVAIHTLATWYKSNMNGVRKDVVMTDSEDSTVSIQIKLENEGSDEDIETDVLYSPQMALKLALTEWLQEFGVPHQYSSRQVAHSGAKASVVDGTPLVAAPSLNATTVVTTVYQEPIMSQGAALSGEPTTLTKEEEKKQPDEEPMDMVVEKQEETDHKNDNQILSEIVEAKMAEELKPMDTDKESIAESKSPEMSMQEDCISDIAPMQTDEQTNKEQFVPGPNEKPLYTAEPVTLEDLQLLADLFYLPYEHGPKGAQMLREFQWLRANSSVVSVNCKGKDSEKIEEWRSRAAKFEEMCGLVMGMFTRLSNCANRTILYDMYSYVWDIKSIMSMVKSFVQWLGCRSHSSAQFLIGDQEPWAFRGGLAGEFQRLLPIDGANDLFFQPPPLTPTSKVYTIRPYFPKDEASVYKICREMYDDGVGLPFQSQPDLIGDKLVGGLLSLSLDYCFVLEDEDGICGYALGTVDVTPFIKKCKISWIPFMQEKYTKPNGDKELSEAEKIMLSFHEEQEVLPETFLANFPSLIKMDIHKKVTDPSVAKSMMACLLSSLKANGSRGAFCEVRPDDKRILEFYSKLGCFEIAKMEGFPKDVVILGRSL
Experiment: biochemical
Experimental: Human O-GlcNAcase Enzyme Inhibition Assay
The following reaction components were added to a final volume of 10 μL in McIlvaine's Buffer (pH 6.5):
20 nM His-Tagged hOGA and 10 μM Fluoroscein mono-beta-D-(2-deoxy-2-N-acetyl) glucopyranoside (FL-GlcNAc; Marker Gene Technologies Inc, Part #M1485). […] The amount of fluorescence measured was plotted against the concentration of inhibitor to produce a sigmoidal dose response curve, from which an IC50 was calculated.

| SMILES | IC50 | further results |
| --- | --- | --- |
| CCNC1=N[C@@H]2[C@@H](O)[C@H](O)[C@@H](C(=O)CCc3ccccc3)O[C@@H]2S1 [compound no. 59, 1-[(3aR,5S,6S,7R,7aR)-2-(ethylamino)-6,7-dihydroxy-5,6,7,7a-tetrahydro-3aH-pyrano[3,2-d][1,3]thiazol-5-yl]-3-phenylpropan-1-one] |  | IC50 (read-out: OGA enzyme inhibition (IC50)): > 1000 nM |
| CCNC1=N[C@@H]2[C@@H](O)[C@H](O)[C@@H](C(=O)CCCc3ccccc3)O[C@@H]2S1 [compound no. 60, 1-[(3aR,5S,6S,7R,7aR)-2-(ethylamino)-6,7-dihydroxy-5,6,7,7a-tetrahydro-3aH-pyrano[3,2-d][1,3]thiazol-5-yl]-4-phenylbutan-1-one] | > 1000 nM |  |
| CCNC1=N[C@@H]2[C@@H](O)[C@H](O)[C@@H](CN)O[C@@H]2S1 [compound no. 61, (3aR,5R,6S,7R,7aR)-5-(aminomethyl)-2-(ethylamino)-5,6,7,7a-tetrahydro-3aH-pyrano[3,2-d][1,3]thiazole-6,7-diol] | 100 to 500 nM |  |
| CCN(C(=O)OCc1ccccc1)C1=N[C@@H]2[C@@H](O)[C@H](O)[C@@H](CO)O[C@@H]2S1 [compound no. 62, benzyl [(3aR,5R,6S,7R,7aR)-6,7-dihydroxy-5-(hydroxymethyl)-5,6,7,7a-tetrahydro-3aH-pyrano[3,2-d][1,3]thiazol-2-yl]ethylcarbamate] |  | IC50 (20 nM His-Tagged hOGA, 10 μM FL-GlcNAc, pH 6.5, 60 min room temperature, read-out: OGA enzyme inhibition (IC50)): 100 to 500 nM |
| CCN(C(=O)Oc1ccccc1)C1=N[C@@H]2[C@@H](O)[C@H](O)[C@@H](CO)O[C@@H]2S1 [compound no. 63, Phenyl-[(3aR,5R,6S,7R,7aR)-6,7-dihydroxy-5-(hydroxymethyl)-5,6,7,7a-tetrahydro-3aH-pyrano[3,2-d][1,3]thiazol-2-yl]ethylcarbamate] | 100 to 500 nM |  |
